Measurements taken from PubChem BioAssay (NCI).
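Interpolation was linear, between the two tested concentrations surrounding the appropriate level; five concentrations were tested over 48 hours in 96-well plates. The concentration for 50% growth inhibition is given as GI50. TGI marks complete inhibition of growth.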

Key:
Assay in all cases: NCI anticancer screen, dose series, 48 h
MCF7 breast = test system: MCF7 breast
UACC-257 melanoma = test system: UACC-257 melanoma
HS 578T breast = test system: HS 578T breast
UACC-62 melanoma = test system: UACC-62 melanoma
NCI-H23 lung = test system: NCI-H23 lung
MALME-3M melanoma = test system: MALME-3M melanoma
RXF 393 renal = test system: RXF 393 renal
EKVX NSCLC = test system: EKVX NSCLC
CCRF-CEM leukemia = test system: CCRF-CEM leukemia
SNB-75 CNS = test system: SNB-75 CNS

SMILES	GI50 (MCF7 breast)	TGI (MCF7 breast)	GI50 (UACC-257 melanoma)	TGI (UACC-257 melanoma)	GI50 (HS 578T breast)	TGI (HS 578T breast)	GI50 (UACC-62 melanoma)	TGI (UACC-62 melanoma)	GI50 (NCI-H23 lung)	TGI (NCI-H23 lung)	GI50 (MALME-3M melanoma)	TGI (MALME-3M melanoma)	GI50 (RXF 393 renal)	TGI (RXF 393 renal)	GI50 (EKVX NSCLC)	TGI (EKVX NSCLC)	GI50 (CCRF-CEM leukemia)	TGI (CCRF-CEM leukemia)	GI50 (SNB-75 CNS)	TGI (SNB-75 CNS)
C[C@@H]1CCC2[C@@H](C)[C@@H](OCC(CO[C@H]3OC4O[C@@]5(C)CC[C@H]6[C@H](C)CCC([C@H]3C)[C@@]46OO5)OC(=O)CCC(=O)O)OC3O[C@@]4(C)CC[C@@H]1[C@]32OO4 (some centres undefined)	< 0.01 µM	16.7 µM	0.708 µM	37.3 µM	1.81 µM	34.9 µM	0.0765 µM	21.2 µM	0.0101 µM	11.3 µM	< 0.01 µM	12.4 µM	< 0.01 µM	0.205 µM	3.03 µM	41 µM	< 0.0279 µM	> 47.3 µM	16.1 µM	36.6 µM
C=C1NC(=O)C(C(C)CC)NC(=O)C2CSCC(NC(=O)CCC(=O)O)C(=O)NC(Cc3ccccc3)C(=O)NC(C)C(=O)NC(CC(C)CC)C(=O)NC(C(=O)NC(Cc3ccccc3)C(=O)N3CCCC3C(=O)N2)C(C)OC(=O)C(CO)NC(=O)C(C(O)COC)N(C)C(=O)C(C(C)C)NC(=O)C(CC(C)CC)NC1=O (centres undefined)	0.0124 µM	> 6 µM	> 6 µM	> 6 µM	0.0115 µM	> 6 µM	0.00311 µM	> 6 µM	0.1 µM	> 6 µM	0.0326 µM	> 6 µM	0.0136 µM	> 6 µM	0.046 µM	> 6 µM	0.0137 µM	> 6 µM	0.0048 µM	> 6 µM
Cc1cc(/C=C/c2ccc3cc(N(C)C)ccc3[n+]2C)c(C)n1-c1ccccc1	0.169 µM	3.37 µM	0.184 µM	0.951 µM	0.361 µM	9.56 µM	0.277 µM	1.27 µM	0.082 µM	1.76 µM	0.42 µM	1.46 µM	0.199 µM	0.987 µM	0.102 µM	3.9 µM	0.218 µM	2.6 µM	0.211 µM	1.9 µM
N=Nc1c(OC(=O)Nc2cccc(Cl)c2)[nH]c2ccccc12		23.5 µM		26.7 µM		40 µM		21.1 µM		12.1 µM		26.5 µM		26.1 µM		16.8 µM		21.9 µM		17.9 µM
CCN(CC)c1ccc(-c2cc(-c3cc(OC)c(OC)c(OC)c3)nc(N3CCOCC3)c2C#N)cc1	2.03 µM	17.7 µM	2.57 µM	> 100 µM	0.507 µM	12.2 µM	0.379 µM	2.55 µM	5.25 µM	> 100 µM	2.28 µM	> 29.9 µM	1.01 µM	21 µM	2.64 µM	> 100 µM	0.611 µM	> 44.5 µM	1.02 µM	12 µM
O=c1c2sccc2n(CC2COc3ccccc3O2)c(=O)n1O (centres undefined)	5.17 µM	> 100 µM	22.4 µM	> 100 µM	15.1 µM	> 100 µM	14.6 µM	46.4 µM	6.88 µM	34.4 µM	20 µM	81.5 µM	3 µM	9.7 µM	35.3 µM	> 100 µM	7 µM	94.4 µM	3.81 µM	56 µM
O=C1OC(O)[C@@H]2[C@H]1[C@H]1CC[C@@H]2O1 (some centres undefined)	> 100 µM	> 100 µM	> 87 µM	> 100 µM	> 100 µM	> 100 µM	> 100 µM	> 100 µM	> 100 µM	> 100 µM	28.1 µM	77.3 µM	57 µM	> 100 µM	> 100 µM	> 100 µM	> 100 µM	> 100 µM	45.3 µM	> 100 µM
Nc1ncnc2n[nH]c(Nc3ccc(F)cc3)c12	27.7 µM	89.3 µM	67.7 µM	> 100 µM	20.6 µM	> 100 µM	20.8 µM	> 100 µM	67.8 µM	> 100 µM	30.6 µM	> 100 µM	13.6 µM	> 100 µM	33.6 µM	> 100 µM	18.4 µM	72.4 µM	31.7 µM	> 100 µM
CSc1nc(NC2OCC(OC(C)=O)C(OC(C)=O)C2OC(C)=O)c(N=CC=Nc2c(NC3OCC(OC(C)=O)C(OC(C)=O)C3OC(C)=O)nc(SC)[nH]c2=O)c(=O)[nH]1 (centres undefined)		> 100 µM		> 100 µM		> 100 µM		> 100 µM		> 100 µM		> 100 µM		53 µM		> 100 µM		> 100 µM		57.4 µM
Fc1cc2[nH]ncc2c2c3c(c(-c4cn[nH]c4)nc12)CCCC3	1.45 µM	12.8 µM	1.72 µM	5.69 µM	0.624 µM	3.46 µM	0.632 µM	2.31 µM	0.958 µM	4.69 µM	0.953 µM	3.16 µM	0.275 µM	1.27 µM	0.795 µM	3.98 µM	1.13 µM	> 100 µM	0.994 µM	2.32 µM
CC(C)(C)OC(=O)N[C@H]1CC2(C=C(Cl)C(=O)C(Cl)=C2)OC1=O		23.3 µM		21.2 µM		75.5 µM		30.6 µM		33.7 µM		25.9 µM		22.4 µM		40.9 µM		5.4 µM		41.1 µM
CN(C(=O)c1ccc(C(F)(F)F)cc1)c1ccc(Oc2ccc3c(c2)cc(C(=O)N2CCN(Cc4ccc(OC(F)F)cc4)CC2)n3C)nc1	0.515 µM	43.4 µM	0.138 µM	> 100 µM	> 91.5 µM	> 100 µM	3.96 µM	> 100 µM	< 0.01 µM	> 100 µM	> 34.9 µM	> 100 µM	49.2 µM	> 100 µM	< 0.01 µM	> 100 µM		> 100 µM	11.7 µM	> 84 µM
Cn1cnc([N+](=O)[O-])c1S(=O)(=O)Oc1cccc2ccccc12	3.56 µM	14.5 µM	2.36 µM	6.29 µM	26.5 µM	> 100 µM	7.12 µM	20.8 µM	10 µM	32.1 µM	1.83 µM	4.98 µM	2.3 µM	4.3 µM	13.9 µM	34.8 µM	1.32 µM	9.3 µM	9.55 µM	32.3 µM
COC1=CC(=O)C(C2CC(=O)c3c(O)cc(O)cc3O2)=CC1=O (centres undefined)		42.3 µM		34.9 µM		83 µM		31.3 µM		40.5 µM		34.8 µM		34.8 µM		30.8 µM		2.42 µM		39.7 µM
CC1(C)C2CCC(=O)C1CC2 (centres undefined)		> 100 µM		> 100 µM		> 100 µM		> 100 µM		> 100 µM		> 100 µM		> 100 µM				> 100 µM		> 100 µM
COc1c(Cl)c(=O)oc2ccc(Cl)cc12		> 100 µM		> 100 µM		> 100 µM		> 100 µM		> 100 µM		> 100 µM		> 100 µM		> 100 µM		> 100 µM		> 100 µM
OCc1ccc(-c2ccc(-c3ccc(CO)s3)o2)s1		2.59 µM		0.0669 µM		86.6 µM		0.154 µM		> 90.9 µM		> 88.8 µM		1.77 µM		> 96.4 µM		72.2 µM		80.3 µM
Cc1cc2c(cc1Cl)SC(N(N(C)C)S(=O)(=O)c1ccc(Cl)cc1)=NS2(=O)=O	12.6 µM	48.3 µM	23.8 µM	88.5 µM	23.4 µM	67.3 µM	22 µM	56.1 µM	31.2 µM	> 100 µM	22 µM	62 µM	31.3 µM	> 100 µM	26.6 µM	79.6 µM	3.29 µM	> 100 µM	36 µM	97.5 µM
NS(=O)(=O)c1cc(Br)c(N=Nc2ccc(O)c3ncccc23)c(Br)c1		38.5 µM		67.3 µM		78.5 µM		68.8 µM		> 100 µM		79.6 µM		> 100 µM		> 100 µM		6.74 µM		73.7 µM
O=C(/C=C/c1ccc(Cl)cc1)c1ccc(Nc2ccnc3cc(Cl)ccc23)cc1	1.56 µM	> 100 µM	> 100 µM	> 100 µM	36.3 µM	> 100 µM	> 100 µM	> 100 µM	> 100 µM	> 100 µM	> 100 µM	> 100 µM	10.7 µM	> 83.8 µM	> 84.6 µM	> 100 µM	7.3 µM	> 100 µM	> 100 µM	> 100 µM
COc1cc(/C=C/c2cc(O)c(C(C)=O)c(O)c2)cc2c1O[C@]1(C)CC[C@@H](O)C(C)(C)[C@H]1C2	3.31 µM	22.2 µM	11 µM	72.7 µM	1.87 µM	16.2 µM	2.89 µM	11.5 µM	10.7 µM	34.5 µM	7.35 µM	44.2 µM	1.7 µM	6.06 µM	13.1 µM	72.9 µM	4.4 µM	> 100 µM	1.77 µM	27 µM
NC1(C(=O)OCc2ccccc2)CCCC1		> 100 µM		41.9 µM		79.7 µM		37 µM		43.6 µM		31.8 µM		33.7 µM		59.3 µM		> 100 µM		35.1 µM
O=C(CSc1ccc(Cl)cc1)Nc1ccc(-c2nc3ccccc3s2)c(Cl)c1	4.67 µM	39.2 µM	15.7 µM	> 100 µM	2.56 µM	7.99 µM	2.77 µM	15.1 µM	2.23 µM	5.56 µM	4.77 µM	36.2 µM	14.1 µM	55.8 µM	4.1 µM	40.3 µM	3.58 µM	> 100 µM	29.1 µM	> 100 µM
COc1ccc(/C=C(/C#N)n2nnc3cccc(F)c32)cc1	0.524 µM	> 100 µM	77.8 µM	> 100 µM	1.66 µM	6.41 µM	0.516 µM	29.9 µM	1.23 µM	6.3 µM	0.69 µM	> 100 µM	1.3 µM	6.37 µM	2.37 µM	> 100 µM	0.949 µM	> 100 µM	0.206 µM	0.638 µM
COc1cc2c3c(n(C)c(=O)c2cc1OC)-c1cc2c(cc1/C3=C\CCN)OCO2	0.094 µM	1.3 µM	1.03 µM	16.9 µM	2.01 µM		0.185 µM	4.41 µM			0.239 µM	2.07 µM	0.823 µM	6.86 µM	1.71 µM	13.5 µM	< 0.0104 µM		6.05 µM	> 59.9 µM
Cc1cc(-c2ccc3nc(C4CCOCC4)n(CCOC(F)(F)F)c3c2)cn(C)c1=O	0.0586 µM					0.888 µM		2.06 µM	0.518 µM	12.8 µM		5.16 µM	0.885 µM	6.34 µM	0.761 µM	> 100 µM	1.71 µM	> 100 µM		5.97 µM
COc1ccc(-c2nnc(COc3ccc(NC(=O)Nc4cc(C(F)(F)F)cc(C(F)(F)F)c4)cc3F)o2)cc1	2 µM	5.04 µM	2.08 µM	5.51 µM	1.99 µM	5.55 µM	2.11 µM	7.13 µM	1.8 µM	4.38 µM	1.85 µM	4.77 µM	1.96 µM	6.06 µM			2.86 µM	11.6 µM	2.02 µM	6.37 µM
Cc1ccccc1S(=O)(=O)OC1NS(=O)(=O)c2ccccc21 (centres undefined)		> 100 µM		> 100 µM		> 100 µM		> 100 µM		> 100 µM		> 100 µM		> 100 µM		> 100 µM				> 100 µM
